From patent publication US7276531B2, “G-lactam derivatives as prostaglandin agonists” (Applied Research Systems ARS Holding N.V., priority 2003, dated 2007)

Tests used:
h-EP2 = h-EP2 (Homo sapiens, UniProt P43116); test: Prostaglandin EP2 receptor binding assay (3H-PGE2 SPA); conditions: EP2 receptor membranes, 20 nM 3H-PGE2, pH 6.0
Protocol: Compounds of the invention were tested in an EP2 receptor binding assay of the following protocol. As referred to herein, the term an “EP2 receptor binding assay” designates the following protocol.

h-EP4 = h-EP4 (Homo sapiens, UniProt P35408); test: EP4 receptor binding assay (3H-PGE2 SPA); conditions: EP4 receptor membranes, 20 nM 3H-PGE2, pH 6.0
Protocol: Compounds of the invention were tested in an EP4 receptor binding assay of the following protocol.

hEP2 receptors = molecular target: T1, hEP2 receptors (Homo sapiens, UniProt P43116); test: EP2 cAMP assay, HEK293-EBNA cells transfected with pCEP4-hEP2 receptors; type: cell-based; conditions: total cAMP, 1 hour
T1 construct: expressed in transfected cells; host or cells: HEK293-EBNA
Protocol: Compounds of the invention were tested in a total cAMP assay as follows. […] After overnight incubation, the medium was removed from each well and replaced with 45 μl of assay medium consisted of phenol red free D-MEM/F-12, 0.1% BSA (GibcoBRL) and 0.1 mM 3-isobutyl-1-methyl-xanthine (Sigma). […] Total cAMP (intra- and extra-cellular) was measured by using a cAMP-screen ELISA System (Tropix, #CS1000).

hEP4 receptors = molecular target: T2, hEP4 receptors (Homo sapiens, UniProt P35408); test: EP4 cAMP assay, HEK293-EBNA cells transfected with pCEP4-hEP4 receptors; type: cell-based; conditions: total cAMP, 1 hour
T2 construct: expressed in transfected cells; host or cells: HEK293-EBNA
Protocol: Compounds of the invention were tested in a total cAMP assay as follows. HEK293-EBNA cells transfected with pCEP4-hEP4 receptors were seeded in 96 well opaque plate (Costar #3917) at 4×10^4 cells per well in 100 μl of culture medium (D-MEM/F12 supplemented with 10% FBS, […] L-glutamine, and 250 μg/ml of hygromycin; all from GibcoBRL) and incubated at 37° C. After overnight incubation, the medium was removed from each well and replaced with 45 μl of assay medium consisted of phenol red free D-MEM/F-12, 0.1% BSA (GibcoBRL) and 0.1 mM 3-isobutyl-1-methyl-xanthine (Sigma). After 15 minutes of incubation at 37° C., 16-16-dimethyl PGE-2 or compounds at desired concentrations in 20 μl of assay medium were added to cells and further incubated at 37° C. for 1 hour. Total cAMP (intra- and extra-cellular) was measured by using a cAMP-screen ELISA System (Tropix, #CS1000).

[1] = tested on: methacholine-induced bronchoconstriction; test: In vivo inhibition of guinea pig broncho-constriction (methacholine-induced); conditions: Cavia porcellus, IT (intra-tracheal) route, read-out: calculated effective dose (ED50), bronchoconstriction
Excerpt: The activity of compounds of the invention in dilation of bronchiolar muscles, may be tested in different models. Guinea pig pulmonary-cholinergic in vivo model is generally used to test the materials for the treatments of asthma in human (Fleisch et al., 1985) Compounds of the invention can be tested in this methacholine-induced bronchomuscle constriction model as described below.
Groups of 3 Duncan Hartley derived male or female guinea pigs weighing 250±50 g are anesthetized with pentobarbital sodium (50 mg/kg i.p., plus an additional 15 mg/kg i.p. if required) and succinylcholine chloride (2 mg/animal i.p.) is subsequently administered to prevent spontaneous respiration. Body temperature is maintained at 37° to 38° C.
The trachea is cannulated and the guinea pig is ventilated with a Harvard rodent respirator in a closed system. Tracheal pressure is recorded through a side-arm of the cannula connected to a P23ID Statham transducer. […] Mean arterial pressure (BP) is monitored from a cannulated carotid artery, and heart rate (HR) is obtained from chest electrodes arranged for lead II. […]
Compounds of the invention are also tested via intra-tracheal (IT) route of administration. […] Tracheal pressure (ITP), blood pressure and heart rate are measured immediately as indicated in the material and methods sections. […]

LPS-induced TNFα release = test: In vivo inhibition of LPS-induced TNFα release in mice; conditions: LPS 0.3 mg/kg i.p.
Protocol: The anti-inflammatory activity of compounds of the invention may be assessed after a LPS challenge using the following protocol:
Eight weeks old C3H/H mice (IFFA-CREDO, L'arbresle, France) receive an oral treatment with compounds of the invention 6 different doses (0.001, 0.01, 0.1, 1 or 3 and 10 mg/kg in 0.5% CMC/0.25% tween-20). Six mice are used by group. Fifteen minutes later, endotoxins (O111:B4 Sigma, 0.3 mg/kg) are intraperitoneally injected. Heparinized whole blood is collected by decapitation. TNFα level is determined in plasma by ELISA (R & D Systems, Abdingdon, UK). Control animals receive 0.5% CMC/0.25% tween-20 (10 ml/kg) as vehicle. Data obtained from experiments are expressed as the mean±SEM and analysed using one-way analysis of variance (ANOVA) followed by Dunnett's t-test.

[2] = tested on: mature mouse ovulation induction model; test: In vivo ovulation assay (mature mouse ovulation induction model); conditions: Mus musculus, po, read-out: calculated ED50 (dose of drug which produces 50% of its effect), ovulation; p.o. administration route, mice
Protocol: Ovulation induction activity of compounds of the invention was tested in a mature mouse ovulation induction model.
Mature 10-week-old CD-mice were used. Reagents were prepared as follows: PMSG (pregnant mare serum gonadotropin) (Calbiochem, cat #367222) and hCG (Serono) are diluted in PBS. PGE2 (Cayman, Ann Arbor Mich.) was dissolved in ethanol and diluted with 0.154 M […] Buffer (pH 8.0) to final concentration of ethanol of less than 3 percent. A compound of the invention (based on solubility) was pre-dissolved in ethanol, DMSO or other reagents. The compound of the invention was then diluted with saline or other diluents such as PBS or NP3S (5% N-methyl-pyrrolidinone/30% PEG400/25% PEG200/20% Propylene Glycol in saline). PMSG stimulates ovarian follicular development. After PMSG stimulation, the mature follicules can be stimulated to rupture and release oocytes by an ovulation trigger, such as hCG or a compound of the invention.
The following test protocol is employed for the test animals (typically 5 animals per test group). • Day 1: Inject 5 IU PMSG in 200 μl PBS (i.p. 15:00 PM) • Day 2: No administration • Day 3: Injection of ovulation trigger hCG (i.p.) or hCG replacement (PGE2 or compound of the invention, s.c., i.v. or oral route), 15:00 PM • Day 4: Eighteen hours after injections of the ovulation triggers, animals were sacrificed by CO2 asphyxiation and abdominal cavities were opened using fine scissors and forceps. Uterus, oviducts and ovaries were collected and placed in pre-labeled dishes containing phosphate buffered saline (PBS). The collected tissues were transferred to the laboratory and intact oviduct carefully dissected out from uterus and ovary under the dissection microscope. The dissected oviducts were placed on the glass microscopic slide and covered with another slide. Two slides were taped on two edges. The numbers of ovulated ova in the oviducts were counted using upright microscope with 4× objective and recorded. […]

Chain of h-EP2 (P43116 whole entry): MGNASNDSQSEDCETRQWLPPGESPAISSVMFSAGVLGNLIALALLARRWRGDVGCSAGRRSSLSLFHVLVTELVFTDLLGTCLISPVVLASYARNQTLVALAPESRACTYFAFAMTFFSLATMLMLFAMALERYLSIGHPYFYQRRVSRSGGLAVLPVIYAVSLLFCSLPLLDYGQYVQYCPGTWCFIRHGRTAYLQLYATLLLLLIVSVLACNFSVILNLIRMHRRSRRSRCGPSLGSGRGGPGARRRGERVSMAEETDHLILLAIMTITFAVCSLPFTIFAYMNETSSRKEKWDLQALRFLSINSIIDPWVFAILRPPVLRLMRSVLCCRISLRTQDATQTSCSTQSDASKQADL
T1 sequence (P43116 whole entry): as above
T2 sequence (P35408 whole entry): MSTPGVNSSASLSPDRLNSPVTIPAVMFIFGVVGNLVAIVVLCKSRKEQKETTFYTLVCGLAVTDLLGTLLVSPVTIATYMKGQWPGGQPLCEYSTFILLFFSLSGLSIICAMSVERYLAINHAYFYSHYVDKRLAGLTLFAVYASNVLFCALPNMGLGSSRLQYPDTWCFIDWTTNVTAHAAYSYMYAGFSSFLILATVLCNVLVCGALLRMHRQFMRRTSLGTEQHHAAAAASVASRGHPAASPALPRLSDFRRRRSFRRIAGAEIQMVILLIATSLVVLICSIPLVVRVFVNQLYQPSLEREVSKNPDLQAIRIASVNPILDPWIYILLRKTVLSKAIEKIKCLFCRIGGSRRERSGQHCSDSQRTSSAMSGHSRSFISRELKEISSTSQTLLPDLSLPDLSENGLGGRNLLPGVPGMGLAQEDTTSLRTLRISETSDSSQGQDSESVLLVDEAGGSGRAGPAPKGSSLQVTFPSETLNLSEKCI
Chain of h-EP4 (P35408 whole entry): as above

| SMILES | Ki (h-EP2) [nM] | Ki (h-EP4) [nM] | EC50 (hEP2 receptors) [nM] | EC50 (hEP4 receptors) [nM] | further results |
| --- | --- | --- | --- | --- | --- |
| C/C(=C\C=C/[C@H]1CCC(=O)N1CCc1ccc(C(=O)O)cc1)CC1CCCC1 [Example 30, 4-(2-{(2)-2-[(1Z,3E)-5-cyclopentyl-4-methylpenta-1,3-dienyl]-5-oxopyrrolidin-1-yl}ethyl)benzoic acid] | 60 | 117 |  |  |  |
| C/C(=C\C=C\[C@H]1CCC(=O)N1CCc1ccc(C(=O)O)cc1)C(C)C [Example 55, 4-(2-{(2R)-2-[(1E,3E)-4,5-dimethylhexa-1,3-dienyl]-5-oxopyrrolidin-1-yl}ethyl)benzoic acid] | 36 | 164 |  |  |  |
| CCCC/C(C)=C/C=C\[C@H]1CCC(=O)N1CCCc1ccc(C(=O)O)s1 (single isomer, unassigned) [Example 19] | 60 | 6 | 49 | 2 |  |
| CCCC/C=C(C)/C=C/[C@H]1CCC(=O)N1CCc1ccc(C(=O)O)cc1 [Example 22, 4-(2-{(2R)-2-[(1E,3E)-3-methylocta-1,3-dienyl]-5-oxopyrrolidin-1-yl}ethyl)benzoic acid] | 34 | 145 | 23 | 21 | ED50 [1]: 0.4 mg/kg; % of Inhibition of TNF Release Mean ± SEM (LPS-induced TNFα release; oral dose 0.001 mg/kg): 46 ± 2%; % of Inhibition of TNF Release Mean ± SEM (LPS-induced TNFα release; oral dose 0.01 mg/kg): 49 ± 4%; % of Inhibition of TNF Release Mean ± SEM (LPS-induced TNFα release; oral dose 0.1 mg/kg): 59 ± 2%; % of Inhibition of TNF Release Mean ± SEM (LPS-induced TNFα release; oral dose 1 mg/kg): 70 ± 4%; % of Inhibition of TNF Release Mean ± SEM (LPS-induced TNFα release; oral dose 10 mg/kg): 87 ± 2% |
| CCC/C(C)=C/C=C\[C@H]1CCC(=O)N1CCc1ccc(C(=O)O)cc1 [Example 44, 4-(2-{(2R)-2-[(1Z,3E)-4-methylhepta-1,3-dienyl]-5-oxopyrrolidin-1-yl}ethyl)benzoic acid] | 79 | 6 |  |  | ED50 [2]: 1 mg/kg |
| O=C(O)c1ccc(CCN2C(=O)CC[C@@H]2/C=C\C=C2CCCCC2)cc1 [Example 56] | 27 | 307 |  |  |  |
| O=C(O)c1ccc(CCN2C(=O)CC[C@@H]2/C=C\C=C(/c2ccccc2)C(F)(F)F)cc1 [Example 58] | 100 | 69 |  |  |  |
| CC(C)=CCC/C(C)=C/C=C\[C@H]1CCC(=O)N1CCc1ccc(C(=O)O)cc1 [Example 11, 4-(2-{(2R)-2-[(1Z,3E)-4,8-dimethylnona-1,3,7-trienyl]-5-oxopyrrolidin-1-yl}ethyl)benzoic acid] | 410 | 45 | 1050 | 2 |  |
| CCCC/C=C/C=C\[C@H]1CCC(=O)N1CCc1ccc(C(=O)O)cc1 [Example 1, 4-(2-{(2R)-2-[(1Z,3E)-octa-1,3-dienyl]-5-oxopyrrolidin-1-yl}ethyl)benzoic acid] | 88 | 25 | 197 | 20 |  |
| CCCC/C(C)=C/C=C\[C@H]1CCC(=O)N1CCCc1ccc(C(=O)O)s1 (single isomer, unassigned) [Example 13] | 60 | 6 |  |  |  |
| C/C(=C\C=C/[C@H]1CCC(=O)N1CCc1ccc(C(=O)O)cc1)c1ccccc1 [Example 32, 4-(2-{(2R)-2-[(1Z,3E)-4-phenylpenta-1,3-dienyl]-5-oxopyrrolidin-1-yl}ethyl)benzoic acid] | 749 | 29 |  |  |  |
| CCCC/C=C/C=C\[C@H]1CCC(=O)N1CCCc1ccc(C(=O)O)s1 [Example 17, 5-(3-{(2R)-2-[(1Z,3E)-octa-1,3-dienyl]-5-oxopyrrolidin-1-yl}propyl)thiophene-2-carboxylic acid] | 44 | 51 |  |  |  |
| C/C(=C\C=C\[C@H]1CCC(=O)N1CCc1ccc(C(=O)O)cc1)C1CC1 [Example 63, 4-(2-{(2R)-2-[(1E,3E)-4-cyclopropylpenta-1,3-dienyl]-5-oxopyrrolidin-1-yl}ethyl)benzoic acid] | 277 | 165 |  |  |  |
| CC/C=C/C=C\[C@H]1CCC(=O)N1CCc1ccc(C(=O)O)cc1 [Example 7, 4-(2-{(2R)-2-[(1Z,3E)-hexa-1,3-dienyl]-5-oxopyrrolidin-1-yl}ethyl)benzoic acid] | 1530 | 71 | 2600 | 2 |  |
| CC(C)=CCC/C(C)=C/C=C/[C@H]1CCC(=O)N1CCc1ccc(C(=O)O)cc1 [Example 12, 4-(2-{(2R)-2-[(1E,3E)-4,8-dimethylnona-1,3,7-trienyl]-5-oxopyrrolidin-1-yl}ethyl)benzoic acid] | 750 | 470 |  |  |  |
